Patent US7008636B2, “2,3,5-substituted biphenyls useful in the treatment of insulin resistance and hyperglycemia” (Wyeth, priority 1998, dated 2006)
Structures can show the parent of a compound that is named as a salt.

Tested on: not given
Assay: not given
Conditions: not given
Compound `CCCCCCCCCCCCNC(=O)c1cc(-c2ccc(F)c(Cl)c2)c(OCC(=O)O)c(-c2ccc(F)c(Cl)c2)c1` (as salt: sodium) [Example 24, (3,3″-Dichloro-5′-dodecylcarbamoyl-4,4″-difluoro[1,1′;3′,1″]terphenyl(-2′-yloxy)-acetic acid sodium salt] has a melting point of 140.2 to 141 °C.
In the case of `CCOP(=O)(COc1c(-c2cccc(C(F)(F)F)c2)cc(C(=O)NCCCCCCCc2ccccc2)cc1-c1cccc(C(F)(F)F)c1)OCC` (hydrate or solvate), the melting point is reported as 84 to 85 °C.
With `O=C(NCCCCCCCc1ccccc1)c1cc(-c2cccc(C(F)(F)F)c2)c(OCP(=O)(O)O)c(-c2cccc(C(F)(F)F)c2)c1` (hydrate or solvate) [Example 128, [5′-(7-Phenyl-heptylcarbamoyl)-3,3″-bis-trifluoromethyl-[1,1′:3′,1″]terphenyl-2′-yloxymethyl]-phosphonic acid] the melting point was 160 to 165 °C.
In the case of `COc1ccc(-c2cc(-c3ccc(C(=O)NCCCCCCCc4ccccc4)cc3)cc(-c3ccc(OC)cc3)c2OCc2ccc(C(=O)O)cc2)cc1` (hydrate or solvate) [Example 133], the melting point is reported as 140 to 142 °C.
Compound `O=C(O)c1ccc(COc2c(-c3cccc(C(F)(F)F)c3)cc(C(=O)NCCCCCCCc3ccccc3)cc2-c2cccc(C(F)(F)F)c2)cc1` (hydrate or solvate) [Example 134, 4-[5′-(7-Phenyl-heptylcarbamoyl)-3,3″-bis-trifluoromethyl-[1,1′:3′,1″]terphenyl-2′-yloxymethyl]-benzoic acid] has a melting point of 89 to 91 °C.
`O=C(O)COc1c(-c2cccc(C(F)(F)F)c2)cc(C(=O)NCCCCCCCCc2ccccc2)cc1-c1cccc(C(F)(F)F)c1` [Example 7] gave a melting point of 143 to 145.4 °C.

Biological target: T1, recombinant, human protein tyrosine phosphatase (PTP) 1B (hPTP1B) (Homo sapiens, UniProt P18031)
T1 construct: made in house
T1 sequence (P18031 1-435): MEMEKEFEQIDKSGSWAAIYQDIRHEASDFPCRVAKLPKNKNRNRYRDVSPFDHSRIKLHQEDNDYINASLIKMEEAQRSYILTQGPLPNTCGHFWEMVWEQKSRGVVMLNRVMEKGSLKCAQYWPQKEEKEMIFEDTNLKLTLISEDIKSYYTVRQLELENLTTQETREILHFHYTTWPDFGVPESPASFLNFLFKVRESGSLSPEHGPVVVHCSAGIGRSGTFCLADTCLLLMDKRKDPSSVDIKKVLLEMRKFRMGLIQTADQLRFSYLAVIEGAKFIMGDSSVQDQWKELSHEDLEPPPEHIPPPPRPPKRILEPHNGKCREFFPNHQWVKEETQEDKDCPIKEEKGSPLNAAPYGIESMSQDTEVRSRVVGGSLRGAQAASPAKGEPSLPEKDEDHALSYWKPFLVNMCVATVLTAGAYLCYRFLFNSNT
Assay: Inhibition of tri-phosphorylated insulin receptor dodecaphosphopeptide dephosphorylation by hPTP1B
Format: biochemical
Conditions: 50 μM IR triphosphopeptide substrate, 5 min preincubation and 5 min reaction at 37° C., malachite green-ammonium molybdate phosphate detection
Work on `CCCCCCCOc1ccc(CNC(=O)c2cc(-c3cccc(Cl)c3)c(OCC(=O)O)c(-c3cccc(Cl)c3)c2)cc1` [Example 162, [3,3″-Dichloro-5′-(4-heptyloxy-benzylcarbamoyl)-[1,1′;3′,1″]terphenyl-2′-yloxy]acetic acid] yielded an IC50 of 136 nM.
Work on `O=C(O)CCCCOc1c(-c2cccc(Cl)c2)cc(C(=O)NCCCCCCCCn2ccc3ccccc32)cc1-c1cccc(Cl)c1` [Example 164, 5-[3,3″-Dichloro-5′-(8-indol-1-yl-octylcarbamoyl)-[1,1′;3′,1″]terphenyl-2′-yloxy]-pentanoic acid] yielded an IC50 of 191 nM.
`O=C(O)c1ccc(OCCOc2c(-c3cccc(Cl)c3)cc(C(=O)NCCCCCCCCn3ccc4ccccc43)cc2-c2cccc(Cl)c2)cc1` [Example 165, 4-{2-[3,3″-Dichloro-5′-(8-indol-1-yl-octylcarbamoyl)-[1,1′:3′,1″]terphenyl-2′-yloxy]-ethoxy}benzoic acid] gave an IC50 of 77 nM.
For `O=C(O)COc1c(-c2cccc(Cl)c2)cc(C(=O)NCCCCCCO)cc1-c1cccc(Cl)c1` [Example 167, [3,3″-Dichloro-5′-(6-hydroxy-hexylcarbamoyl)-[1,1′:3′,1″]terphenyl-2′-yloxy]acetic acid], the IC50 was 231 nM.
In the case of `O=C(O)COCCOc1c(-c2cccc(Cl)c2)cc(C(=O)NCCCCCCCCn2ccc3ccccc32)cc1-c1cccc(Cl)c1` [Example 168, {2-[3,3″-Dichloro-5′-(8-indol-1-yl-octylcarbamoyl)-[1,1′:3′,1″]terphenyl-2′-yloxy]-ethoxy}acetic acid], the IC50 is reported as 77 nM.
`CCCCCCCCCCCCCc1cc(-c2ccccc2)c(OCC(=O)O)c(-c2ccccc2)c1` [Example 171, (5′-Tridecyl-[1,1′;3′,1″]terphenyl-2′-yloxy)acetic acid] showed an IC50 of 18 nM.
Work on `CCCCCCCCCCOc1cc(-c2ccccc2)c(OCC(=O)O)c(-c2ccccc2)c1` [Example 172, (5′-Decyloxy-[1,1′;3′,1″]terphenyl-2′-yloxy)acetic acid] yielded an IC50 of 154 nM.
Work on `CCCCCCCCCCCCNC(=O)c1cc(Br)c(OCC(=O)O)c(-c2cccc(C(F)(F)F)c2)c1` [Example 176, (3-Bromo-5-dodecylcarbamoyl-3′-trifluoromethyl-biphenyl-2-yloxy)-acetic acid] yielded an IC50 of 121 nM.
With `O=C(O)COc1c(-c2cccc(C(F)(F)F)c2)cc(C(=O)NCCCCCCCCc2ccccc2)cc1-c1cccc(C(F)(F)F)c1` [Example 177] the IC50 was 104 nM.
With `CCCCCCCCCCCCNC(=O)c1cc(Br)c(OS(=O)(=O)c2ccc(C(=O)O)c(O)c2)c(-c2cccc(C(F)(F)F)c2)c1` [Example 179, 4-(3-Bromo-5-dodecylcarbamoyl-3′-trifluoromethyl-biphenyl-2-yloxysulfonyl)-2-hydroxy-benzoic acid] the IC50 was 25 nM.
For `O=C(O)CCCCOc1c(-c2cccc(C(F)(F)F)c2)cc(C(=O)NCCCCCCCCc2ccccc2)cc1-c1cccc(C(F)(F)F)c1` [Example 192], the IC50 was 107 nM.
`O=C(NCCCCCCCCc1ccccc1)c1cc(Br)c(O)c(-c2cccc(C(F)(F)F)c2)c1` [Example 194, 5-Bromo-6-hydroxy-3′-trifluoromethyl-biphenyl-3-carboxylic acid (8-phenyl-octyl)-amide] showed an IC50 of 640 nM.
`O=C(NCCCCCCCCc1ccccc1)c1cc(Br)c(OS(=O)(=O)c2ccc(C(=O)O)c(O)c2)c(-c2cccc(C(F)(F)F)c2)c1` [Example 195, 4-[3-Bromo-5-(8-phenyl-octylcarbamoyl)-3′-trifluoromethyl-biphenyl-2-yloxysulfonyl]-2-hydroxy-benzoic acid] showed an IC50 of 73 nM.
For `O=C(O)CCCCCCOc1c(-c2cccc(C(F)(F)F)c2)cc(C(=O)NCCCCCCCCc2ccccc2)cc1-c1cccc(C(F)(F)F)c1` [Example 196, 7-[5′-(8-Phenyl-octylcarbamoyl)-3,3″-bistrifluoromethyl-[1,1′;3′,1″]terphenyl-2′-yloxy]-heptanoic acid], the IC50 was 150 nM.
For `O=C(NCCCCCCCCc1ccccc1)c1cc(-c2cccc(C(F)(F)F)c2)c(OCCNc2c(O)c(=O)c2=O)c(-c2cccc(C(F)(F)F)c2)c1` [Example 197], the IC50 was 99 nM.
In the case of `COc1cc(COc2c(-c3cccc(C(F)(F)F)c3)cc(C(=O)NCCCCCCCCc3ccccc3)cc2-c2cccc(C(F)(F)F)c2)ccc1C(=O)O` [Example 199, 2-Methoxy-4-[5′-(8-phenyl-octylcarbamoyl)-3,3″-bis-trifluoromethyl-[1,1′:3′1″]terphenyl-2′yloxymethyl]-benzoic acid], the IC50 is reported as 102 nM.
`O=C(NCCCCCCCCc1ccccc1)c1cc(-c2cccc(C(F)(F)F)c2)c(OS(=O)(=O)c2ccc(C(=O)O)c(O)c2)c(-c2cccc(C(F)(F)F)c2)c1` [Example 203, 2-Hydroxy-4-[5′-(8-phenyl-octylcarbamoyl)-3,3″-bis-trifluoromethyl-[1,1′:3′1″]terphenyl-2′-yloxysulfonyl]-benzoic acid] gave an IC50 of 50 nM.
`COc1cc(COc2c(Br)cc(C(=O)NCCCCCCCCc3ccccc3)cc2-c2cccc(C(F)(F)F)c2)ccc1C(=O)O` [Example 204, 4-[3-Bromo-5-(8-phenyl-octylcarbamoyl)-3′-trifluoromethyl-biphenyl-2-yloxymethyl]-2-methoxy-benzoic acid] showed an IC50 of 73 nM.
In the case of `O=C(NCCCCCCCCc1ccccc1)c1cc(-c2cccc(C(F)(F)F)c2)c(OCc2nnn[nH]2)c(-c2cccc(C(F)(F)F)c2)c1` [Example 206, 2′-(1H-Tetrazol-5-ylmethoxy)-3,3″-bis-trifluoromethyl-[1,1′:3′1″]terphenyl-5′-carboxylic acid (8-phenyl-octyl)-amide], the IC50 is reported as 286 nM.
Work on `O=C(NCCCCCCCCc1ccccc1)c1cc(Br)c(OCc2ccc(C(=O)O)c(O)c2)c(-c2cccc(C(F)(F)F)c2)c1` [Example 208, 4-[3-Bromo-5-(8-phenyl-octylcarbamoyl)-3′-trifluoromethyl-biphenyl-2-yloxymethyl]-2-hydroxy-benzoic acid] yielded an IC50 of 83 nM.
For `O=C(NCCCCCCCCc1ccccc1)c1ccc(OS(=O)(=O)c2ccc(C(=O)O)c(O)c2)c(Br)c1` [Example 210, 4-[2-Bromo-4-(8-phenyl-octylcarbamoyl)-phenoxysulfonyl]-2-hydroxy-benzoic acid], the IC50 was 530 nM.
For `O=C(NCCCCCCCCc1ccccc1)c1cc(-c2cccc(C(F)(F)F)c2)c(OCCOc2ccc(C(=O)O)c(O)c2)c(-c2cccc(C(F)(F)F)c2)c1` [Example 211, 2-Hydroxy-4-{2-[5′-(8-phenyl-octylcarbamoyl)-3,3″-bis-trifluoromethyl-[1,1′:3′,1″]terphenyl-2′-yloxy]-ethoxy}-benzoic acid], the IC50 was 60 nM.
Work on `CN(CCCCCCCCc1ccccc1)C(=O)c1cc(Br)c(OCC(=O)O)c(-c2cccc(C(F)(F)F)c2)c1` [Example 212, {3-Bromo-5-[methyl-(8-phenyl-octyl)-carbamoyl]-3′-trifluoromethyl-biphenyl-2-yloxy]-acetic acid] yielded an IC50 of 272 nM.
Compound `CN(CCCCCCCCc1ccccc1)C(=O)c1cc(-c2ccc(F)c(Cl)c2)c(OCC(=O)O)c(-c2ccc(F)c(Cl)c2)c1` [Example 213, {3,3″-Dichloro-4,4″difluoro-5′-[methyl-(8-phenyl-octyl)-carbamoyl]-[1,1′;3′1″]terphenyl-2′yloxy}-acetic acid] has an IC50 of 198 nM.
“Ammonium molybdate tetrahydrate [reference compound]” gave an IC50 of 8700 nM.
For “[[4,4′-Dimethoxy-5′-[4-[[(7-phenylheptyl)amino]carbonyl]phenyl][1,1′:3′,1-terphenyl]-2′-yl]oxy]acetic acid [Example 131]”, the IC50 was 124 nM.
“[[5′-[4-[[(7-Phenylheptyl)amino]carbonyl]phenyl]-3,3′-bis(trifluoromethyl)[1,1′:3′,1′-terphenyl]-2′-yl]oxy]acetic acid [Example 132]” gave an IC50 of 84 nM.
